Assay results: patent US20100092499A1, “Alpha Thymosin Peptides as Cancer Vaccine Adjuvants” (SCICLONE PHARMACEUTICALS, INC., priority 2004, published 2010)

Columns and labels:
[1] = system: advanced breast cancer; experiment: Clinical study of dendritic cell vaccine with or without thymalfasin in advanced breast cancer patients; type: in vivo, human; settings: for Patient Survival: 12 months; for Patient Survival / Patients with Tumor Reduction >50%: Group 3 non responders (LPI <20 U), 6 dendritic cell immunizations plus thymalfasin 1.6 mg twice a week, n=5; for Patients with Tumor Reduction >50%: Month 6
Method: Finally, the patients were immunized with the activated B cells hybrid itself, or a B cell hybrid cocultured with the patients' Dendritic Cells. This immunization was applied into a healthy lymph node once every three weeks. At the same time, the patients received 1.6 mg thymalfasin subcutaneously in the evenings (within between 7:00 pm and 9:00 pm) every 3 days during the time of immunization and for the following six months after the vaccination protocol was completed. This vaccination plan may, for example, involve from 4 to 10 doses, although these numbers are not exclusive.
Eighteen patients with advanced breast cancer resistant to chemo, radio and hormonotherapy were treated.
All the patients were female with Breast Cancer class 4 (with metastases).
The age rank was between 39 to 71 years.
The patients were treated with dendritic cell vaccine (according protocol: Annals of Oncology 2004-Vol 15. Supp. 3 Abs: iii40-Dendritic Cell Vaccine for Metastases Breast Cancer).
(§1) After the second vaccination course, the cellular immunization were measured, if this is >=20 ULPI (Linfocitic Proliferative Index) continued with the vaccination.
If the response was <20 ULPI, the patients were divided in 2 groups (randomized) of 5 and 7 patients group. The 5 patients group received Dendritic Cells
Vaccine plus thymalfasin (1.6 mg/tw during 6 months).
The clinical response and the survival data originated on total 18 metastatic breast patients treated were collected and, in order to perform a case serial statistic analysis we divided the total population in three different groups.
In Group 3 (n=5), patients received 6 dendritic cell immunizations with an LPI <20 U (non immune response) after the second vaccine and they received thymalfasin (1.6 mg/twice a week).

[2] = system: patient tumor cells; experiment: Lymphocyte Proliferation Assay (LPI); type: cell-based, human; settings: five patients with LPI lower than 20 U after second DC immunization; thymalfasin 1.6 mg twice a week for 6 months plus 4 additional DC vaccine courses
Method: as §1
The patient immune response was measured using a well known in-vitro test named Lymphocyte Proliferation Assay. Briefly, mononuclear cells from the patient were purified and mixed with a suspension of the patient tumor cells at ratio 10:1 (3000 Lympho-monocytes vs 300 tumor cells). The mix cell suspension was seeded in a multi well plate and incubated at 37° C. After 96 hr the cells were harvested and counted by an automatic haemocytometer.

[3] = system: human CD34 stem cells; settings: added to human CD34 stem cells in culture; cited from earlier work
[4] = system: IFNγ, IL-2, IL-3, IL-2 receptor; settings: following activation by mitogens or antigens; cited from earlier work
[5] = system: thymocytes; settings: in vitro, dose-dependent; most pronounced on CD4CD8 double positive immature T cells; cited from earlier work
[6] = in vivo; cited from earlier work

Substance: thymosin alpha 1 [thymalfasin]
- Patient Survival [1]: 80%
- Patient Survival ([1]; listed as THYMALFASIN): 80%
- Patients with Tumor Reduction >50% [1]: 80%
- Patients with Tumor Reduction >50% ([1]; listed as THYMALFASIN): 80%
- Patient survival compared with immune responders and non immune responders who did not receive thymalfasin ([1]; advanced breast cancer patients, dendritic cell immunization): higher
- effective tumor response ([1]; five patients with LPI lower than 20 U, thymalfasin 1.6 mg twice a week for 6 months plus 4 additional DC vaccine courses): majority of the treated patients showed an effective tumor response
- Lymphocyte Proliferation Index (LPI) [2]: able to improve the LPI
- thymopoiesis (number of total CD3 T cells, synthesis of IL-7) [3]: increased thymopoiesis
- production of IFNγ, IL-2, IL-3 and expression of the IL-2 receptor [4]: can increase production
- dexamethasone-induced apoptosis in thymocytes [5]: antagonizes
- safety / side effects [6]: safe drug and its potential side effects are significantly low
